Measurements taken from publication PMC9157788, “Design, Synthesis, and Apoptosis-Promoting Effect Evaluation of Rhopaladins’ Analog 4-Arylidene-5-Oxopyrrolidine Derivatives” (Frontiers in Chemistry, 2022).
Read-outs that look alike come from different tables or passages of the source.

Assays:
7402 cells [1] = test system: 7402 cells; design: method as in Kong et al., 2021; settings: MTT, ref Kong et al., 2021, read-out: Half inhibitory concentration (IC50), 7402; cited from earlier work
CaSki cells [2] = test system: CaSki cells; design: method as in Kong et al., 2021; settings: MTT, ref Kong et al., 2021, read-out: Half inhibitory concentration (IC50), CaSki; cited from earlier work
HepG2 cells [3] = test system: HepG2 cells; design: method as in Kong et al., 2021; settings: MTT, ref Kong et al., 2021, read-out: Half inhibitory concentration (IC50), HepG2; cited from earlier work
HeLa cells [4] = test system: HeLa cells; design: method as in Kong et al., 2021; settings: MTT, ref Kong et al., 2021, read-out: Half inhibitory concentration (IC50), HeLa; cited from earlier work
LO2 cells [5] = test system: LO2 cells; design: method as in Kong et al., 2021; settings: normal liver LO2 cells, MTT; ref Kong et al., 2021; read-out: Half inhibitory concentration (IC50), LO2; cited from earlier work
SiHa cells [6] = test system: SiHa cells; design: method as in Kong et al., 2021; settings: MTT, ref Kong et al., 2021, read-out: Half inhibitory concentration (IC50), SiHa; cited from earlier work
C-33A cells [7] = test system: C-33A cells; design: method as in Kong et al., 2021; settings: MTT, ref Kong et al., 2021, read-out: Half inhibitory concentration (IC50), C-33A; cited from earlier work
7402 cells [8] = assay: MTT cell viability assay, 7402; format: cell-based; settings: Homo sapiens, 48 h, read-out: Half inhibitory concentration (IC50), 7402
Protocol: (§1) HepG2 (human epidermoid hepatocellular carcinoma cell), 7402 (human epidermoid hepatocellular carcinoma cell), C-33A (human epidermoid cervical carcinoma cell), and HeLa (human epidermoid cervical adenocarcinoma cell) were incubated in Dulbecco’s modified Eagle’s medium (DMEM), which was purchased from Gibco (Grand Island, NY, United States). SiHa cells (human epidermoid cervical squamous cell carcinoma) were incubated in minimum essential medium (MEM, also from Gibco). CaSki (human epidermoid cervical carcinoma cell) and LO2 (human normal liver cell) were incubated in minimum essential medium (MEM, also from Gibco). All cells were maintained at 37°C in a humidified incubator with 5% carbon dioxide, and the media contained 10% fetal bovine serum (FBS, Corning, United States) and 1% penicillin–streptomycin antibiotic solution (Corning, United States). SiHa and CaSki were bought from the China Center for Type Culture Collection (CCTCC). The other five types of cancer cell lines were obtained from the Experiment Center of Medicine, Sinopharm Dongfeng Hospital, Hubei University of Medicine. The compounds were dissolved in dimethyl sulfoxide (DMSO, MP Biomedicals, United States), and cisplatin was purchased from Aladdin, Shanghai, China. The control (0 μM) group was treated with DMSO only in the same conditions, and the DMSO content in the medium was less than 0.1%.
(§2) Cell viability was measured by a 3-(4,5-dimethylthiazol-2-yl)-2,5-diphenyltetrazolium bromide (MTT, MultiSciences, China) assay. The specific experimental steps referred to our previous research ([Zhu et al., 2020]). For each cell line, cells were digested and seeded in 96-well plates at a density of 1 × 10^3 cells/well. […] Then, the formed formazan crystals were dissolved in DMSO, and the plates were estimated in a […] microplate reader (BioTek Inc., Bio-Tek MQX200) at a wavelength of 490 nm. Optical density (OD) values were obtained, and the inhibition rate and IC50 of each compound on different cells were calculated by GraphPad Prism 8.0.1 software. […]

CaSki cells [9] = assay: MTT cell viability assay, CaSki; format: cell-based; settings: Homo sapiens, Ca-Ski, 48 h, read-out: Half inhibitory concentration (IC50), CaSki
Protocol: as §1, §2

HeLa cells [10] = assay: MTT cell viability assay, HeLa; format: cell-based; settings: Homo sapiens, 48 h, read-out: Half inhibitory concentration (IC50), HeLa
Protocol: as §1, §2

C-33A cells [11] = assay: MTT cell viability assay, C-33A; format: cell-based; settings: Homo sapiens, 48 h, read-out: Half inhibitory concentration (IC50), C-33A
Protocol: as §1, §2

LO2 cells [12] = assay: MTT cell viability assay, normal liver LO2; format: cell-based, human; settings: Homo sapiens, L02, normal liver LO2 cells, 48 h, read-out: Half inhibitory concentration (IC50), LO2
Protocol: as §1
Cell viability was measured by a 3-(4,5-dimethylthiazol-2-yl)-2,5-diphenyltetrazolium bromide (MTT, MultiSciences, China) assay. The specific experimental steps referred to our previous research ([Zhu et al., 2020]). For each cell line, cells were digested and seeded in 96-well plates at a density of 1 × 10^3 cells/well. After 24 h of culture, the cells were adherent and treated with varying concentrations of RPDPRH (0, 3.125, 6.25, 12.5, 25, 50, and 100 μM). Cells without treatment were used as a solvent control group (0 μM, DMSO) and those with cisplatin treatment served as a positive control. After 48 h of treatment, MTT solution was added and incubated for 4 h. Then, the formed formazan crystals were dissolved in DMSO, and the plates were estimated in a […] microplate reader (BioTek Inc., Bio-Tek MQX200) at a wavelength of 490 nm. Optical density (OD) values were obtained, and the inhibition rate and IC50 of each compound on different cells were calculated by GraphPad Prism 8.0.1 software. Cell inhibition rate (%) = 1− [(OD experimental-OD blank)/(OD control-OD blank)] × 100%.

HepG2 cells [13] = assay: MTT cell viability assay, HepG2; format: cell-based; settings: Homo sapiens, 48 h, read-out: Half inhibitory concentration (IC50), HepG2
Protocol: as §1, §2

SiHa cells [14] = assay: MTT cell viability assay, SiHa; format: cell-based; settings: Homo sapiens, 48 h, read-out: Half inhibitory concentration (IC50), SiHa
Protocol: as §1, §2

For N.N.[Cl][Pt][Cl] [Cisplatin, cisplatin, reference compound], the IC50 (7402 cells [1]) is given as 48.5 µM, the IC50 (CaSki cells [2]) is given as 17.5 µM and the IC50 (HepG2 cells [3]) is given as 19.3 µM. For the same compound, the IC50 (HeLa cells [4]) was 47.5 µM, the IC50 (LO2 cells [5]) was 17.3 µM and the IC50 (SiHa cells [6]) was 37.1 µM. For the same compound, the IC50 (C-33A cells [7]) was 48.2 µM.
For O=C1/C(=C/c2ccccc2)CC(/C=C/c2ccccc2)(C(=O)NC2CCCCC2)N1c1ccc(Cl)cc1 (stereo not drawn) [RPDPRI, (2E, 4E)-4-benzylidene-1-(4-chlorophenyl)-N-cyclohexyl-5-oxo-2-styrylpyrrolidine-2-carboxamide], the IC50 (7402 cells [8]) was > 100 µM, the IC50 (CaSki cells [9]) was > 100 µM and the IC50 (HeLa cells [10]) was > 100 µM. The IC50 (C-33A cells [11]) was > 100 µM, the melting point was 209 to 210 °C and the IC50 (LO2 cells [12]) was > 100 µM. The IC50 (HepG2 cells [13]) was > 100 µM and the IC50 (SiHa cells [14]) was > 100 µM.
For O=C1/C(=C/c2ccc(Cl)cc2)CC(/C=C/c2ccccc2)(C(=O)NC2CCCCC2)N1c1ccc(Cl)cc1 (stereo not drawn) [RPDPRK, (2E, 4E)-4-(4-chlorobenzylidene)-1-(4-chlorophenyl)-N-cyclohexyl-5-oxo-2-styryl pyrrolidine-2-carboxamide], the IC50 (7402 cells [8]) was > 100 µM, the IC50 (CaSki cells [9]) was 46.4 µM and the IC50 (HeLa cells [10]) was 44.7 µM. For the same compound, the IC50 (C-33A cells [11]) was 89.5 µM, the IC50 (LO2 cells [12]) was > 100 µM and the IC50 (HepG2 cells [13]) was > 100 µM. The IC50 (SiHa cells [14]) was 67.3 µM.
In the case of O=C1/C(=C/c2ccccc2)CC(/C=C/c2ccc(Cl)cc2)(C(=O)NC2CCCCC2)N1c1ccc(F)cc1 (stereo not drawn) [RPDPRO, (2E, 4E)-2-(4-chlorostyryl)-4-benzylidene-N-cyclohexyl-1-(4-fluorophenyl)-5-oxopyrrolidine-2-carboxamide], the IC50 (7402 cells [1]) is given as 31.2 µM, the melting point is given as 142 to 144 °C and the IC50 (CaSki cells [2]) is given as 9.15 µM. For the same compound, the IC50 (HepG2 cells [3]) was 14.5 µM, the IC50 (HeLa cells [4]) was 21.4 µM and the IC50 (LO2 cells [5]) was 86.8 µM. The IC50 (SiHa cells [6]) was 12.5 µM and the IC50 (C-33A cells [7]) was 5.56 µM.
